# Test results as given in PubChem BioAssay (NCI).
#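 Following 48 hours of exposure in 96-well plates, responses at five concentrations were used to interpolate endpoints linearly. GI50 marks 50% less growth. TGI marks complete inhibition of growth.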
# Key:
# Assay in all cases: DTP human tumour cell line panel, 48 h
# [1] = test system: SF-268 CNS
# [2] = test system: HOP-92 NSCLC
# [3] = test system: U251 CNS
# [4] = test system: SN12C renal
# [5] = test system: SK-OV-3 ovarian
# [6] = test system: SNB-19 CNS
# [7] = test system: OVCAR-4 ovarian
# [8] = test system: NCI/ADR-RES ovarian
# [9] = test system: SR leukemia
# [10] = test system: KM12 colon
# [11] = test system: HOP-62 NSCLC
# [12] = test system: A549 NSCLC
# [13] = test system: OVCAR-8 ovarian
# [14] = test system: ACHN renal
# [15] = test system: SW-620 colon
# [16] = test system: HS 578T breast
# [17] = test system: NCI-H460 lung
# [18] = test system: M14 melanoma
# [19] = test system: TK-10 renal
# [20] = test system: MCF7 breast
# [21] = test system: BT-549 breast
# [22] = test system: PC-3 prostate
# [23] = test system: LOX IMVI melanoma
# [24] = test system: OVCAR-5 ovarian
# [25] = test system: UACC-257 melanoma
# [26] = test system: SF-295 CNS
# [27] = test system: K-562 leukemia
# [28] = test system: NCI-H522 lung
# [29] = test system: RXF 393 renal
# [30] = test system: DU-145 prostate
# [31] = test system: IGROV1 ovarian
# [32] = test system: UACC-62 melanoma
# [33] = test system: MDA-MB-435
# [34] = test system: CCRF-CEM leukemia
# [35] = test system: HCT-15 colon
# [36] = test system: NCI-H226 lung
# [37] = test system: HL-60(TB) leukemia
# [38] = test system: COLO 205 colon
# [39] = test system: EKVX NSCLC
# [40] = test system: SK-MEL-5 melanoma
# [41] = test system: A498 renal
# [42] = test system: HCC-2998 colon
# [43] = test system: SK-MEL-28 melanoma
# [44] = test system: HCT-116 colon
# [45] = test system: OVCAR-3 ovarian
# [46] = test system: MDA-MB-231 breast
# [47] = test system: CAKI-1 renal
# [48] = test system: MALME-3M melanoma
# [49] = test system: SNB-75 CNS
# [50] = test system: UO-31 renal
# [51] = test system: MOLT-4 leukemia
# [52] = test system: SK-MEL-2 melanoma
# [53] = test system: RPMI-8226 leukemia
# [54] = test system: NCI-H23 lung
# [55] = test system: T-47D breast
# [56] = test system: 786-0 renal
compound,measurement,setting,value
CCOC(=O)C#Cc1c(C(=O)OCC)nnn1Cc1ccc(C(F)(F)F)cc1,GI50,[1],8.12 µM
same,TGI,[1],25.7 µM
same,GI50,[2],2.53 µM
same,TGI,[2],5.7 µM
same,GI50,[3],10.9 µM
same,TGI,[3],22.8 µM
same,GI50,[4],2.42 µM
same,TGI,[4],6.08 µM
same,GI50,[5],19.4 µM
same,TGI,[5],38.6 µM
same,GI50,[6],19.4 µM
same,TGI,[6],44.8 µM
same,GI50,[7],3.22 µM
same,TGI,[7],11.7 µM
same,GI50,[8],7.49 µM
same,TGI,[8],40.7 µM
same,GI50,[9],1.06 µM
same,TGI,[9],4.48 µM
same,GI50,[10],11.8 µM
same,TGI,[10],25.5 µM
same,GI50,[11],17 µM
same,TGI,[11],32 µM
same,GI50,[12],20.6 µM
same,TGI,[12],39.2 µM
same,GI50,[13],4.37 µM
same,TGI,[13],15 µM
same,GI50,[14],1.92 µM
same,TGI,[14],3.56 µM
same,GI50,[15],2.08 µM
same,TGI,[15],4.36 µM
same,GI50,[16],22.5 µM
same,TGI,[16],59.5 µM
same,GI50,[17],11.5 µM
same,TGI,[17],27.1 µM
same,GI50,[18],2.46 µM
same,TGI,[18],5.82 µM
same,GI50,[19],2.08 µM
same,TGI,[19],4.55 µM
same,GI50,[20],2.52 µM
same,TGI,[20],10.1 µM
same,GI50,[21],2.93 µM
same,TGI,[21],8.65 µM
same,GI50,[22],9.38 µM
same,TGI,[22],22 µM
same,GI50,[23],0.692 µM
same,TGI,[23],2.09 µM
same,GI50,[24],9.75 µM
same,TGI,[24],22 µM
same,GI50,[25],3.69 µM
same,TGI,[25],11 µM
same,GI50,[26],17.5 µM
same,TGI,[26],32.9 µM
same,GI50,[27],1.77 µM
same,TGI,[27],8.3 µM
same,GI50,[28],2.4 µM
same,TGI,[28],4.47 µM
same,GI50,[29],1.68 µM
same,TGI,[29],3.24 µM
same,GI50,[30],3.9 µM
same,TGI,[30],15.1 µM
same,GI50,[31],14.2 µM
same,TGI,[31],30.8 µM
same,GI50,[32],1.93 µM
same,TGI,[32],4.36 µM
same,GI50,[33],3.72 µM
same,TGI,[33],14.5 µM
same,GI50,[34],1.07 µM
same,TGI,[34],4.92 µM
same,GI50,[35],1.95 µM
same,TGI,[35],4.46 µM
same,GI50,[36],1.72 µM
same,TGI,[36],3.63 µM
same,GI50,[37],1.3 µM
same,TGI,[37],3.85 µM
same,GI50,[38],2.32 µM
same,TGI,[38],5.29 µM
same,GI50,[39],16.6 µM
same,TGI,[39],31.2 µM
same,GI50,[40],9.92 µM
same,TGI,[40],21.5 µM
same,GI50,[41],16.9 µM
same,TGI,[41],30.6 µM
same,GI50,[42],18.1 µM
same,TGI,[42],32.7 µM
same,GI50,[43],2.47 µM
same,TGI,[43],5.91 µM
same,GI50,[44],1.8 µM
same,TGI,[44],3.5 µM
same,GI50,[45],1.73 µM
same,TGI,[45],3.32 µM
same,GI50,[46],4.05 µM
same,TGI,[46],14 µM
same,GI50,[47],2.09 µM
same,TGI,[47],4.58 µM
same,GI50,[48],2.08 µM
same,TGI,[48],4.9 µM
same,GI50,[49],9.31 µM
same,TGI,[49],21.4 µM
same,GI50,[50],1.8 µM
same,TGI,[50],3.47 µM
same,GI50,[51],1.73 µM
same,TGI,[51],6.85 µM
same,GI50,[52],15.1 µM
same,TGI,[52],28.7 µM
same,GI50,[53],2.53 µM
same,TGI,[53],7.21 µM
same,GI50,[54],11.5 µM
same,TGI,[54],27.6 µM
same,GI50,[55],2.08 µM
same,TGI,[55],5.66 µM
same,GI50,[56],2.58 µM
same,TGI,[56],6.29 µM
